{
  "source": "patent US10336768B2",
  "about": "“Pyrimidine compounds and methods using the same” (Yuma Therapeutics, Inc., priority 2014, dated 2019)",
  "key": {"[1]": {"test_system": "T1, His-tagged-Hsp90", "T1 construct": "fused on or other part: His tag (captured on Ni2+-coated beads)", "assay": "Hsp90 biochemical assay (AlphaLISA)", "format": "binding", "method": "This assay employs biotinylated geldanamycin, His-tagged-Hsp90, and Ni^+2 coated beads. This assay is homogenous and miniaturized to 384-well plates. Measurement of binding activity was performed on an Envision reader. […] This assay is the primary assay for evaluating compounds of the invention."}, "[2]": {"test_system": "SH-SY5Y-hTAU441 cells", "assay": "Cytotoxicity assay (MTT)", "format": "cell-based", "details": "FIG. 6A", "method": "SH-SY5Y-hTAU441 cell viability was determined using the MTT assay. […] SH-SY5Y cell viability may also be measured after 24 and 48 h with the CellTiter-Glo® assay that measures ATP-levels. In addition, cytotoxicity may be assessed using the Celigo® with live cell microscopic imaging and a GE InCell Analyzer 2000 to measure multiple outcomes including apoptosis markers, membrane permeability, and mitochondrial activity."}},
  "note": "Like-named read-outs stand apart in the source and are kept apart here.",
  "data": [
    {"smiles": "Nc1nc(-c2c(Cl)cc(Cl)c3c2CCO3)c2[nH]ccc2n1", "note": "[compound 20, 4-(5,7-Dichloro-2,3-dihydrobenzofuran-4-yl)-5H-pyrrolo[3,2-d]pyrimidin-2-amine]", "values": [
      {"measurement": "IC50", "setting": "[1]; AlphaLISA, FIG. 5A, read-out: Hsp90 inhibitory activity IC50", "result": "0.74 ± 0.1", "unit": "µM"},
      {"measurement": "IC50", "setting": "[1]; IC50 class, AlphaLISA (primary assay), read-out: Hsp90 inhibitory activity", "result": "< 1", "unit": "µM"},
      {"measurement": "cell viability", "setting": "[2]", "result": "did not affect cell viability"}
    ]}
  ]
}
